From ChEMBL document CHEMBL2407091, “Effect of the orthoquinone moiety in 9,10-phenanthrenequinone on its ability to induce apoptosis in HCT-116 and HL-60 cells” (2013)
The source made the active and inactive calls. No cut-off for these calls is given here.

Each compound was assayed on HL-60 (assay: Cytotoxicity against human HL60 cells at 5 uM after 24 hrs by WST-1 assay). Conditions: not given.
Type: functional, cell-based

SMILES	Activity
O=C1C(=O)c2ccccc2-c2ccccc21 [9,10-PHENANTHRENEQUINONE]	Active

Each compound was assayed on HCT-116 (assay: Cytotoxicity against human HCT116 cells after 24 hrs by MTT assay). Conditions: HCT-116, 24 h, read-out: LC50 (the source's name).
Type: functional

SMILES	CC50
O=C1C(=O)c2cccc3cccc1c23 [ACENAPHTHOQUINONE]	> 10 µM
Oc1cc2ccccc2c2ccccc12	> 10 µM
O=C(C(=O)c1ccccc1)c1ccccc1 [BENZIL]	> 10 µM
O=c1[nH]c2ccccc2c2ccccc12	> 10 µM
c1ccc2c(c1)CCc1ccccc1-2 [DIHYDROPHENANTHRENE]	> 10 µM
c1ccc2c(c1)ccc1ccccc12 [PHENANTHRENE]	> 10 µM
O=c1c(=O)c2cccc3ccc4cccc1c4c32	0.86 µM
O=C1C=Cc2ccccc2C1=O [1,2-NAPHTHOQUINONE]	9.2 µM
O=C1C(=O)c2ccccc2-c2ccccc21 [9,10-PHENANTHRENEQUINONE]	1.43 µM
O=C1C(=O)c2cccnc2-c2ncccc21	0.73 µM

These compounds were tested on HL-60 (assay: Induction of apoptosis in human HL60 cells assessed as DNA fragmentation at 10 uM after 6 hrs by electrophoretic analysis). Conditions: not given.
Type: functional, cell-based

SMILES	Activity
O=c1c(=O)c2cccc3ccc4cccc1c4c32	Active
O=C1C(=O)c2ccccc2-c2ccccc21 [9,10-PHENANTHRENEQUINONE]	Active
O=C1C(=O)c2cccnc2-c2ncccc21	Active

Each compound was assayed on HCT-116 (assay: Cytotoxicity against human HCT116 cells at >2.5 uM after 24 hrs by MTT assay). Conditions: not given.
Type: functional, cell-based

SMILES	Activity
O=C1C(=O)c2ccccc2-c2ccccc21 [9,10-PHENANTHRENEQUINONE]	Active

The compounds below were run on HL-60 (assay: Cytotoxicity against human HL60 cells after 24 hrs by WST-1 assay). Conditions: HL-60, 24 h, read-out: LC50 (the source's name).
Type: functional

SMILES	CC50
O=C1C(=O)c2cccc3cccc1c23 [ACENAPHTHOQUINONE]	> 10 µM
Oc1cc2ccccc2c2ccccc12	> 10 µM
O=C(C(=O)c1ccccc1)c1ccccc1 [BENZIL]	> 10 µM
O=c1[nH]c2ccccc2c2ccccc12	> 10 µM
c1ccc2c(c1)CCc1ccccc1-2 [DIHYDROPHENANTHRENE]	> 10 µM
c1ccc2c(c1)ccc1ccccc12 [PHENANTHRENE]	> 10 µM
O=c1c(=O)c2cccc3ccc4cccc1c4c32	3.41 µM
O=C1C=Cc2ccccc2C1=O [1,2-NAPHTHOQUINONE]	7.14 µM
O=C1C(=O)c2ccccc2-c2ccccc21 [9,10-PHENANTHRENEQUINONE]	3.38 µM
O=C1C(=O)c2cccnc2-c2ncccc21	1.57 µM

The compounds below were run on HL-60 (assay: Induction of apoptosis in human HL60 cells assessed as caspase-3 activation at 10 uM after 4 hrs by FACS flow cytometric analysis). Conditions: not given.
Type: functional, cell-based

SMILES	Activity
O=c1c(=O)c2cccc3ccc4cccc1c4c32	Active
O=C1C(=O)c2ccccc2-c2ccccc21 [9,10-PHENANTHRENEQUINONE]	Active
O=C1C(=O)c2cccnc2-c2ncccc21	Active
